Data on ten compounds can be found in US4978663A, “5-(1-aminocyclohexyl)-2(1H)-pyridinone compounds which have pharmaceutical utility” (priority 1989, dated 1990).

Experiment [1] can be described thus: 2-phenyl-1,4-benzoquinone-induced writhing test in mice (PQW), analgesic activity. Type of experiment: in vivo. (In general: Writhing tests count abdominal constrictions after an irritant is injected.)
Experiment [2] can be described thus: Dark Avoidance Assay (reversal of scopolamine induced memory deficit). Conditions: mice, s.c., retest after 24 hours. Type of experiment: in vivo. The method, then:
In this assay mice are tested for their ability to remember an unpleasant stimulus for a period of 24 hours. A mouse is placed in a chamber that contains a dark compartment; a strong incadescent light drives it to the dark compartment, where an electric shock is administered through metal plates on the floor. The animal is removed from the testing apparatus and tested again, 24 hours later, for the ability to remember the electric shock.
If scopolamine, an anticholinergic that is known to cause memory impairment, is administered before an animal's initial exposure to the test chamber, the animal re-enters the dark compartment shortly after being placed in the test chamber 24 hours later.

In the case of `NC1(c2ccc(=O)n(CC#CCN3CCCC3)c2)CCCCC1` [5-(1-Aminocyclohexyl)-1-[4-(pyrrolidin-1-yl)-2-butynyl]-2(1H)-pyridinone], the “Analgesic PQW, % Inhibition of Writhing at 20 mg/kg., s.c.” value (shortened to “Analgesic PQW, % Inhibition … s.c.”) in experiment [1] worked out at 53%.

With `O=C(NC1(c2ccc(=O)[nH]c2)CCCCC1)c1ccccc1` [N-[1-(1,6-Dihydro-6-oxo-3-pyridinyl)cyclohexyl]benzamide], in experiment [1], the “Analgesic PQW, % Inhibition … s.c.” value amounted to 72%.

On to `CC1(C)CCC(N)(c2ccc(=O)[nH]c2)CC1.Cl` [5-(1-Amino-4,4-dimethylcyclohexyl)-2(1H)-pyridinone hydrochloride], for which, in experiment [1], the “Analgesic PQW, % Inhibition … s.c.” value is on record as 62%. Also, the “% of animals with scopolamine induced memory deficit reversal” value (“% of animals” below) in experiment [2] (2.5 mg/kg) is recorded as 20%.

With `CC(=O)NC1(c2ccc(=O)n(C)c2)CCCCC1` [N-[1-(1,6-Dihydro-1-methyl-6-oxo-3-pyridinyl)cyclohexyl]acetamide], in experiment [2] (0.63 mg/kg), the “% of animals” value worked out at 33%.

On to `CNC(=O)Oc1ccc2c(c1)[C@]1(C)CCN(C)[C@@H]1N2C` [Physostigmine, reference compound], for which the “% of animals” value in experiment [2] (0.31 mg/kg) was 20%.

For `CC(=O)NC1(c2ccc(=O)n(C)c2)CCC(C(C)(C)C)CC1` (stereo not drawn) [cis-N-[1-(1,6-Dihydro-1-methyl-6-oxo-3-pyridinyl)-4-(1,1-dimethylethyl)cyclohexyl]acetamide], the “Analgesic PQW, % Inhibition … s.c.” value in experiment [1] came out at 47%. Moreover, the “% of animals” value in experiment [2] (1.3 mg/kg) turned out to be 33%.

Turning to `CC(=O)NC1(c2ccc(=O)[nH]c2)CCCCC1` [N-[1-(1,6-Dihydro-6-oxo-3-pyridinyl)cyclohexyl]acetamide], the “Analgesic PQW, % Inhibition … s.c.” value in experiment [1] is listed as 58%.

In the case of `O=C(CN1CCC(C(=O)c2ccc(F)cc2)CC1)NC1(c2ccc(=O)[nH]c2)CCCCC1` [N-[1-(1,6-Dihydro-6-oxo-3-pyridinyl)cyclohexyl][4-(4-fluorobenzoyl)]-1-piperidineacetamide], the “Analgesic PQW, % Inhibition … s.c.” value in experiment [1] worked out at 77%.

Regarding `CCC(=O)O[C@](Cc1ccccc1)(c1ccccc1)[C@H](C)CN(C)C` [Propoxyphene, reference compound], the “Analgesic PQW, % Inhibition of Writhing” value in experiment [1] (3.9 mg/kg, s.c.) stood at 50%.

For `Cl.NC1(c2ccc(=O)n(Cc3ccccc3)c2)CCCCC1` [5-(1-Aminocyclohexyl)-1-(phenylmethyl)-2(1H)-pyridinone hydrochloride], the “Analgesic PQW, % Inhibition … s.c.” value in experiment [1] was 42%. Also, in experiment [2] (0.16 mg/kg), the “% of animals” value stood at 20%.
